We go through 1 compound from PMC9645260, “Small-molecule inhibitors of P-Rex guanine-nucleotide exchange factors” (Small GTPases, 2022).

Each structure is given as a SMILES string.

One assay concerns the target T1, Tiam1 (full-length) (Homo sapiens, UniProt Q13009).
T1 construct: Full-length Tiam1, expressed in and purified from Sf9 cells; host or cells: Sf9 cells
The experiment in a line: Liposome-based GEF activity assay, Tiam1. It is filed as biochemical. Conditions: 10 µM, 50 nM full-length Tiam1. The protocol: Full-length N-terminally EE-tagged P-Rex1, P-Rex2, the P-Rex1 DH and DHPH domains and the P-Rex2 DH domain were produced in Sf9 cells using baculoviral transduction and were purified using anti-EE beads, as previously described. Briefly, frozen pellets from 500 ml of Sf9 culture infected with P-Rex expressing high-titre baculovirus were resuspended in ice-cold lysis Sf9-cell lysis buffer 2 (1x PBS, 1% Triton X-100, 5 mM EGTA, 1 mM EDTA, 25 mM NaF, 20 mM β-glycerophosphate, 1 mM DTT, 100 µM PMSF, 10 μg/ml each of leupeptin, pepstatin A, aprotinin and antipain) for 5 min and then ultracentrifuged at 118,000 × g for 1 h at 4°C. Supernatants were incubated with pre-washed anti-EE beads for 90 min on ice with end-over-end rotation. […] Protein concentration and purity were determined by coomassie staining of SDS-PAGE gels. […]
(§1) Liposome-based GEF activity assays were carried out essentially as described, except that GEFs were incubated with inhibitor compounds prior to the assay. […] Small GTPases were isolated using anti-EE antibody-coupled Sepharose beads or glutathione Sepharose beads, as appropriate, by incubation on ice for 90 min with end-over-end rotation, four washes in ice-cold wash buffer and resuspension of beads in Ultima Gold scintillation fluid (Perkin Elmer). ^35S-GTPγS incorporation was assessed by scintillation counting (Packard 1600TR, Liquid Scintillation Analyser).

Another assay concerns the target T2, P-Rex1 DH domain (Homo sapiens, UniProt Q8TCU6).
T2 construct: 200 nM iDH EE-P-Rex1 DH domain (compounds 11–29); made in house; host or cells: Sf9 cells (baculovirus)
Put plainly: Liposome-based GEF activity assay, isolated P-Rex1 DH domain. It counts as biochemical. Conditions: 10 µM, 200 nM DH domain, without PIP3; read-out: inhibition of constitutive Rac-GEF activity of isolated P-Rex1 DH domain. The procedure: Full-length N-terminally EE-tagged P-Rex1, P-Rex2, the P-Rex1 DH and DHPH domains and the P-Rex2 DH domain were produced in Sf9 cells using baculoviral transduction and were purified using anti-EE beads, as previously described. Briefly, frozen pellets from 500 ml of Sf9 culture infected with P-Rex expressing high-titre baculovirus were resuspended in ice-cold lysis Sf9-cell lysis buffer 2 (1x PBS, 1% Triton X-100, 5 mM EGTA, 1 mM EDTA, 25 mM NaF, 20 mM β-glycerophosphate, 1 mM DTT, 100 µM PMSF, 10 μg/ml each of leupeptin, pepstatin A, aprotinin and antipain) for 5 min and then ultracentrifuged at 118,000 × g for 1 h at 4°C. Supernatants were incubated with pre-washed anti-EE beads for 90 min on ice with end-over-end rotation. Beads were washed 4 times in wash buffer (2x PBS, 0.1% Triton X-100, 1 mM EGTA) and 5 times in elution buffer (1x PBS, 10% glycerol, 1 mM DTT, 1 mM EGTA, 0.01% Na azide), and protein was eluted by incubation with elution buffer containing Ac-EEYMPME peptide as described above. Protein was concentrated in a YM-100 Centricon (Millipore) at 5000 × g at 4°C. Fatty acid-free BSA and glycerol were added to final concentrations of 2 mg/ml and 50%, respectively. Protein concentration and purity were determined by coomassie staining of SDS-PAGE gels. Full-length Tiam1, expressed in and purified from Sf9 cells, was a kind gift from Angeliki Malliri, CRUK Manchester Institute, UK. […]
as §1

T1 sequence (Q13009 whole entry): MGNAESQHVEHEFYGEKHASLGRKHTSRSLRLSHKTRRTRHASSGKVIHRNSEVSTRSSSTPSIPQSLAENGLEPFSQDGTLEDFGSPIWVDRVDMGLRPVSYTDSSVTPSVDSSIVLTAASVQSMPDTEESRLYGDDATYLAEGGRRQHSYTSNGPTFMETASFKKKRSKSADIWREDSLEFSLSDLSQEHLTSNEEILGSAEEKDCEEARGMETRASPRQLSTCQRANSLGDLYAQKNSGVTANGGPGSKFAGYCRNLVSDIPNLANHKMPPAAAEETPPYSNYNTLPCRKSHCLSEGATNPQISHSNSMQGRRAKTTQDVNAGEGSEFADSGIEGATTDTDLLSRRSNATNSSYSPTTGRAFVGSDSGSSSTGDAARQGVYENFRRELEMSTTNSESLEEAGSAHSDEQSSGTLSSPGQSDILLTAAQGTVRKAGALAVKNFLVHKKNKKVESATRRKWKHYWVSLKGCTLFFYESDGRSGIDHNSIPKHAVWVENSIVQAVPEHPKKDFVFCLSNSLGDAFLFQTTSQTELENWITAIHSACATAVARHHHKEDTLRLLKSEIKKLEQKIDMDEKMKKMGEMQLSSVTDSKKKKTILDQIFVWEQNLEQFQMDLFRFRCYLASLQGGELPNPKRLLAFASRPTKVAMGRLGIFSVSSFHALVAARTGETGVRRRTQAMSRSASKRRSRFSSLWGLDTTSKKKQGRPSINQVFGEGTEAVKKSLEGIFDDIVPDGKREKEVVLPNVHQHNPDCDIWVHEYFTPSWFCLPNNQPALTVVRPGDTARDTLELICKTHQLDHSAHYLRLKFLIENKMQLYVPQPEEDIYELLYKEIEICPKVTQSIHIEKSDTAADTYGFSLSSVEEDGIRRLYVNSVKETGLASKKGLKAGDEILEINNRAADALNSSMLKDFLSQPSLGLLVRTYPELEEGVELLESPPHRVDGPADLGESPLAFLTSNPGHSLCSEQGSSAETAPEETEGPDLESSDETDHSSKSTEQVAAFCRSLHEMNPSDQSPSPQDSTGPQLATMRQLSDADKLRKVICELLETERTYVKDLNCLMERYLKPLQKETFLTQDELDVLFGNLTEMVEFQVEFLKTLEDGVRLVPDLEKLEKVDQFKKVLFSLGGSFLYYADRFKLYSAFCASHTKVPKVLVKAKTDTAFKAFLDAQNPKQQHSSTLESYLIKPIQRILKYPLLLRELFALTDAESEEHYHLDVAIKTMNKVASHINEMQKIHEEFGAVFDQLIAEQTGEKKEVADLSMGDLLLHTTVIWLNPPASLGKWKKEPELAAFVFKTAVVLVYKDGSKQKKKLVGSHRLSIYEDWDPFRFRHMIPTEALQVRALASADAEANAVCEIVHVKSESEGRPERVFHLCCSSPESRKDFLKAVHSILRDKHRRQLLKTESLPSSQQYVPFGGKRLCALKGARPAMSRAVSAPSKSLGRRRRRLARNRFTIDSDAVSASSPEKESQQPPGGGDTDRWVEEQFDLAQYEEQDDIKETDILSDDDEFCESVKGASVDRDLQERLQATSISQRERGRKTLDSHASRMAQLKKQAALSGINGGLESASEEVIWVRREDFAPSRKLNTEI
T2 sequence (Q8TCU6 49-240 limits assumed): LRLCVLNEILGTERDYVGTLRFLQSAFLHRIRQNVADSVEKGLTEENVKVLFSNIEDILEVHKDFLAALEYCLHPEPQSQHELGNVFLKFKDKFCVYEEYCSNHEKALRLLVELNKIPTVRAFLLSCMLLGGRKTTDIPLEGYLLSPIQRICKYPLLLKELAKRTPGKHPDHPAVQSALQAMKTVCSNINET

Consider `COc1ccc(-c2[nH]nc3c2C(c2ccc(-c4ccc(Cl)cc4)o2)C(C#N)=C(N)O3)cc1` (centres unmarked) [PREX-in1, 6-amino-4-[5-(4-chlorophenyl)-2-furyl]-3-(4-methoxyphenyl)-2,4-dihydropyrano[2,3-c]pyrazole-5-carbonitrile], for which the “effect on GEF activity of Tiam1” value on Tiam1 (full-length) is listed as “none of the other GEFs were affected”. Also, the inhibition at 10 µM at P-Rex1 DH domain amounted to 98%.

One may read the inhibition as the drop in the measured response relative to a control, in per cent.
